The record followed here is patent US11013726B2 (Arbutus Biopharma Corporation, priority 2016, dated 2021).

SMILES strings stand for the structures.

In this assay the test system is HBsAg. Put plainly: HBsAg assay. Format: cell-based, hepatitis B virus. To be noted: Hepatitis B virus, HepG2.2.15, 144 h, read-out: sAg EC50, μM, HepG2.2.15 cells, day 6. Put shortly: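 HepG2.2.15 cells were treated with serially diluted compounds (0.5% DMSO), with medium and compound renewed after 2-3 days. Secreted HBsAg measured at day 6 by chemiluminescence immunoassay; EC50 from dose-response curves. Viability assessed in parallel by CellTiter-Glo.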
For `COCCCOc1cc2c(nc1OC)-c1cc(=O)c(C(=O)O)cn1C(C)(C(C)C)C2` (stereo not shown) [Example 155, 6-Isopropyl-2-methoxy-3-(3-methoxypropoxy)-6-methyl-10-oxo-5,10-dihydro-6H-pyrido[1,2-h][1,7]naphthyridine-9-carboxylic acid], the EC50 – broadly, the midpoint of the concentration-response curve – was found to be 0.002 µM.
As for `COCCCOc1cc2c(nc1OC)-c1cc(=O)c(C(=O)O)cn1C(C)(C(C)(C)C)C2` (stereo not shown) [Example 158, 6-(Tert-butyl)-2-methoxy-3-(3-methoxypropoxy)-6-methyl-10-oxo-5,10-dihydro-6H-pyrido[1,2-h][1,7]naphthyridine-9-carboxylic acid], the figure is 0.001 µM; as for `CCOC(=O)c1cn2c(cc1=O)-c1nc(OC)c(OCCCOC)cc1CC2(CC)CC` [Example 161, Ethyl 6,6-diethyl-2-methoxy-3-(3-methoxypropoxy)-10-oxo-5,10-dihydro-6H-pyrido[1,2-h][1,7]naphthyridine-9-carboxylate], 0.1 µM.
Then `CCC1(CC)Cc2cc(OCCCOC)c(OC)nc2-c2cc(=O)c(C(=O)O)cn21` [Example 162, 6,6-Diethyl-2-methoxy-3-(3-methoxypropoxy)-10-oxo-5,10-dihydro-6H-pyrido[1,2-h][1,7]naphthyridine-9-carboxylic acid], with 0.014 µM.
On to `CCC1(C(C)C)Cc2cc(OCCCOC)c(OC)nc2-c2cc(=O)c(C(=O)O)cn21` (stereo not shown) [Example 163, 6-Ethyl-6-isopropyl-2-methoxy-3-(3-methoxypropoxy)-10-oxo-5,10-dihydro-6H-pyrido[1,2-h][1,7]naphthyridine-9-carboxylic acid], for which the EC50 was 0.13 µM.
With `CC(C)[C@@H]1Cc2cc(O)c(O)nc2-c2cc(=O)c(C(=O)O)cn21` [Example 164, (6S)-2,3-Dihydroxy-6-isopropyl-10-oxo-5H,6H-pyrido[1,2-h]1,7-naphthyridine-9-carboxylic acid], the concentration giving a half-maximal response (EC50) was 10 µM.
As for `COc1cc2c(n(C)c1=O)-c1cc(=O)c(C(=O)O)cn1[C@H](C(C)C)C2` [Example 165, (S)-6-Isopropyl-3-methoxy-1-methyl-2,10-dioxo-2,5,6,10-tetrahydro-1H-pyrido[1,2-h][1,7]naphthyridine-9-carboxylic acid], the figure is 4.3 µM; as for `COCCCOc1cc2c(nc1OC)-c1cc(=O)c(C(=O)O)cn1[C@H](C(C)C)CC2` [Example 168, (S)-7-Isopropyl-2-methoxy-3-(3-methoxypropoxy)-11-oxo-5,6,7,11-tetrahydrodipyrido[1,2-a:2′,3′-c]azepine-10-carboxylic acid], 0.071 µM; as for `CC(C)[C@@H]1CCc2cc3c(nc2-c2cc(=O)c(C(=O)O)cn21)OCCCO3` [Example 169, (S)-6-Isopropyl-2-oxo-2,6,7,8,12,13-hexahydro-111-[1,4]dioxepino[2′,3′:5,6]pyrido[2,3-c]pyrido[1,2-a]azepine-3-carboxylic acid], 2.2 µM.
As to `CC(C)[C@@H]1CCc2cc3c(nc2-c2cc(=O)c(C(=O)O)cn21)OCCO3` [Example 170, (S)-6-Isopropyl-2-oxo-2,6,7,8,11,12-hexahydro-[1,4]dioxino[2′,3′:5,6]pyrido[2,3-c]pyrido[1,2-a]azepine-3-carboxylic acid e], the EC50 came to 5 µM.
On to `COCCCOc1cc2c(nc1OC)-c1cc(=O)c(C(=O)O)cn1C1(CCC1)C2` [Example 171, 2′-Methoxy-3′-(3-methoxypropoxy)-10′-oxo-5′,10′-dihydrospiro[cyclobutane-1,6′-pyrido[1,2-h][1,7]naphthyridine]-9′-carboxylic acid], for which the EC50 stood at 0.018 µM.
On to `COc1ccc2c(n1)-c1cc(=O)c(C(=O)O)cn1[C@@H]2C(C)C` [Example 172, (R)-5-Isopropyl-2-methoxy-9-oxo-5,9-dihydropyrido[2,3-a]indolizine-8-carboxylic acid], for which the EC50 amounted to 0.82 µM.
As to `CCOC(=O)c1cn2c(cc1=O)-c1nc(OC)ccc1[C@H]2C(C)C` [Example 173, (R)-ethyl-5-isopropyl-2-methoxy-9-oxo-5,9-dihydropyrido[2,3-a]indolizine-8-carboxylate], the EC50 came out at 8.6 µM.
